Test results published in publication PMC6271642, “New Derivatives of 3,4-Dihydroisoquinoline-3-carboxylic Acid with Free-Radical Scavenging, D-Amino Acid Oxidase, Acetylcholinesterase and Butyrylcholinesterase Inhibitory Activity” (Molecules, 2014).
pIC50: −log10 of the molar value.

Columns and labels:
[1] = molecular target: T1, D-Amino acid oxidase from porcine kidney (DAAO) (Sus scrofa, UniProt P00371); test: colorimetric, […],4-dinitrophenylhydrazine detection of keto acid; assay type: biochemical; conditions: D-Ala substrate, 0.2 M Tris-HCl pH 8.2, 37 °C, 30 min
T1 construct: gene DAO; native enzyme from porcine kidney, Sigma-Aldrich

[2] = molecular target: T1, D-Amino acid oxidase from porcine kidney (DAAO); test: as above; assay type: biochemical; conditions: read-out: DAAO Inhibition [IC50] ^c/[%] ^d
[3] = molecular target: T2, butyrylcholinesterase from equine serum (BuChE) (Equus caballus, UniProt P81908); test: biochemical
T2 construct: gene BCHE

[4] = molecular target: acetylcholinesterase from Electrophorus electricus (AChE) (Electrophorus electricus, UniProt O42275); test: biochemical
Sequence of acetylcholinesterase from Electrophorus electricus (AChE) (O42275 24-633): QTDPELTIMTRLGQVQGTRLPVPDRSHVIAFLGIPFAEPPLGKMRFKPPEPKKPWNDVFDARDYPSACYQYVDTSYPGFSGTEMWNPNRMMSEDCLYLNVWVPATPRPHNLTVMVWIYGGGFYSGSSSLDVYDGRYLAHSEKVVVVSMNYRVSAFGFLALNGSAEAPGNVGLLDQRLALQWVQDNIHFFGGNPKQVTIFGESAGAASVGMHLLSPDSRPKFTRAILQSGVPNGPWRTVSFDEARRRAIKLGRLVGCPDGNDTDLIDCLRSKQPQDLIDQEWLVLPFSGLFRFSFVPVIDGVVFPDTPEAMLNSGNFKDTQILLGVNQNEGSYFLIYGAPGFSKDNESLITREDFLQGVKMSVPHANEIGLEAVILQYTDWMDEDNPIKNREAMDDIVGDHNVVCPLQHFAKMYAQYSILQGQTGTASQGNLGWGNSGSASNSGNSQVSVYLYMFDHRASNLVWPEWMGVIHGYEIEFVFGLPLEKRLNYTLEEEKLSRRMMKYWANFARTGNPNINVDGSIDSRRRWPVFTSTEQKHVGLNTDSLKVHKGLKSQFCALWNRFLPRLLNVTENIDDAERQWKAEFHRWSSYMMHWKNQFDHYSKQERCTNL

T2 sequence (P81908 whole entry): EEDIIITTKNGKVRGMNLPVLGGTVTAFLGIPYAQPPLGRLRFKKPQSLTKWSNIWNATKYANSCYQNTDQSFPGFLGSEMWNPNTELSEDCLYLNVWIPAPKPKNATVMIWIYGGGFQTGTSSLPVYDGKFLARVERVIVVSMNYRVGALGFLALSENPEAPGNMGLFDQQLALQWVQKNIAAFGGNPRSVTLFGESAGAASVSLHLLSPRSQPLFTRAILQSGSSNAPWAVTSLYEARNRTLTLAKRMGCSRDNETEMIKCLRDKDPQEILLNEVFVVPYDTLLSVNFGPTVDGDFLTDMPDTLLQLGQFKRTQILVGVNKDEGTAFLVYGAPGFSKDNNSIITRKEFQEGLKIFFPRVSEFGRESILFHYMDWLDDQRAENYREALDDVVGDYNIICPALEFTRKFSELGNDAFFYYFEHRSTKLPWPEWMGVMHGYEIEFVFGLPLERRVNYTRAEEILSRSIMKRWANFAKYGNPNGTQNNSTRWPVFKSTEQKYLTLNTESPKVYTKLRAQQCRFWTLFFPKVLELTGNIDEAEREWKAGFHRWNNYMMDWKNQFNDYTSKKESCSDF
T1 sequence (P00371 whole entry): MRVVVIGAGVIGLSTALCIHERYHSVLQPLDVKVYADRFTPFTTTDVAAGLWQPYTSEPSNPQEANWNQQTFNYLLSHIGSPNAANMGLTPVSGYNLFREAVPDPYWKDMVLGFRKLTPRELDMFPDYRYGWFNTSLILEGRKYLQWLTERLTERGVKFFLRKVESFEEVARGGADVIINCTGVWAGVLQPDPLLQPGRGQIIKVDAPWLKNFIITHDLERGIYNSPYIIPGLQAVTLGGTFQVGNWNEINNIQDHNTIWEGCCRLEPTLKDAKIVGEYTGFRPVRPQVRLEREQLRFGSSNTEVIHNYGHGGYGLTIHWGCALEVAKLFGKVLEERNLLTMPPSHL

Row | DAAO Inhibition [IC50] ^c/[%] ^d ([1]; unreliable (above the highest final concentration of about 3.57 mM, extrapolated)) | SMILES | DAAO Inhibition [IC50] ^c/[%] ^d ([1]; 3570 µM, 3.57 mM compound) | pIC50 [2] | pIC50 [3] | pIC50 [4]
1 | 8.46 mM | O=C(O)C1Cc2c(Br)ccc(O)c2C=N1 (racemic) [5a, 5-Bromo-8-hydroxy-3,4-dihydroisoquinolin-3-carboxylic acid] | – | – | – | –
2 | – | O=C(O)C1Cc2ccc(Br)c(O)c2C=N1 (racemic) [5b, 7-Bromo-8-hydroxy-3,4-dihydroisoquinolin-3-carboxylic acid] | 13.88% | – | – | –
3 | – | O=C(O)C1Cc2cc(O)cc(O)c2C=N1 (racemic) [5c, 6,8-Dihydroxy-3,4-dihydroisoquinolin-3-carboxylic acid] | – | 2.78 | – | –
4 | – | O=C(O)C1Cc2cc(O)c(O)c(I)c2C=N1 (racemic) [5d, 6,7-Dihydroxy-8-iodo-3,4-dihydroisoquinolin-3-carboxylic acid] | – | 2.47 | – | –
5 | – | O=C(O)C1Cc2cc(O)c(O)cc2C=N1 (racemic) [5e, 6,7-Dihydroxy-3,4-dihydroisoquinolin-3-carboxylic acid] | 7.52% | – | 3.43 | 3.25
6 | – | O=C(O)C1Cc2c(O)c(O)cc(Br)c2C=N1 (racemic) [5f, 8-Bromo-5,6-dihydroxy-3,4-dihydroisoquinolin-3-carboxylic acid] | – | 2.69 | – | 3.27
7 | – | O=C(O)C1Cc2cc(O)c(O)c(Br)c2C=N1 (racemic) [5g, 8-Bromo-6,7-dihydroxy-3,4-dihydroisoquinolin-3-carboxylic acid] | – | 2.70 | – | –
8 | – | O=C(O)C1Cc2cc(O)c(O)c(Cl)c2C=N1 (racemic) [5h, 8-Chloro-6,7-dihydroxy-3,4-dihydroisoquinolin-3-carboxylic acid] | – | 2.76 | – | 3.09
9 | – | O=C(O)C1Cc2cc(O)c(Br)c(O)c2C=N1 (racemic) [5j, 7-Bromo-6,8-dihydroxy-3,4-dihydroisoquinolin-3-carboxylic acid] | 11.50% | – | 3.19 | 3.33
10 | – | O=C(O)C1Cc2c(Cl)c(O)cc(O)c2C=N1 (racemic) [5k, 5-Chloro-6,8-dihydroxy-3,4-dihydroisoquinolin-3-carboxylic acid] | 7.27% | – | 2.85 | 3.23
11 | – | O=C(O)C1Cc2c(cc(O)c(O)c2Cl)C=N1 (racemic) [5l, 5-Chloro-6,7-dihydroxy-3,4-dihydroisoquinolin-3-carboxylic acid] | – | 2.89 | 3.77 | –
12 | – | O=C(O)C1CCc2cc(O)c(O)cc2C=N1 (racemic) [compound 9, 7,8-Dihydroxy-4,5-dihydro-3H-2-benzazepine-3-carboxylic Acid] | – | 3.26 | – | 2.68
13 | – | O=C(O)c1ccccc1 [Benzoic acid, reference compound] | – | 2.64 | – | –
14 | – | C[C@@]1(C(=O)O)Cc2cc(O)c(O)cc2C=N1 [compound 13, (S)-6,7-Dihydroxy-3-methyl-3,4-dihydroisoquinolin-3-carboxylic Acid] | 7.89% | – | 3.21 | 2.75
15 | – | CC1(C(=O)O)Cc2cc(O)c(O)cc2C2C(Cl)C(=O)N21 (stereo not shown) [compound 15, 1-Chloro-7,8-dihydroxy-4-methyl-2-oxo-1,4,5,9b-tetrahydro-2H-azeto[2,1-a]-isoquinoline-4-carboxylic Acid] | – | 2.69 | 2.76 | –
